Data published in patent US20240207402A1, “MEANS AND METHODS FOR ENHANCING RECEPTOR-TARGETED GENE TRANSFER” (Deutsches Krebsforschungszentrum Stiftung des öffentlichen …, priority 2021, published 2024).

Columns and labels:
activated PBMC [1] = experiment: Transduction of fully activated PBMC with targeted LVs in presence of dasatinib (GFP expression, flow cytometry); assay type: cell-based, human
activated PBMC [2] = experiment: Vector titers (transducing units/mL) on activated PBMC; assay type: cell-based, human
Method: Transduction was additionally promoted by the transduction enhancer VF-1. Culture medium without dasatinib and Vectofusin-1 was used for control transductions. Transgene expression in T-cells was evaluated 3 and 7 days post transduction by flow cytometry. […] After spinfection, 100 μL of fresh media, either containing the different dasatinib concentrations or without dasatinib, was added and the cells were cultured at 37° C. The medium was changed to fresh TCM with IL-2 or IL-7/15 without dasatinib 3 h, 5 h or 7 h after start of incubation with dasatinib. The cells were further cultured at 37° C., and analyzed for transgene expression 3-4 and 7 days post transduction by flow cytometry. Vector titers were determined in transducing units per milliliter (T U/mL) from LV dilutions showing linear correlation to the number of transgene-positive cells and calculated using following equation.

[3] = test system: freshly isolated PBMC exposed solely to IL-7/15; assay type: cell-based, human
CD25 = assay type: cell-based, human
activated PBMC [4] = assay type: cell-based, human
CD19+Nalm-6 cells = assay type: cell-based, human; details: effector:target 0.5:1
Nalm-6 cells = assay type: cell-based, human
activated PBMC [5] = experiment: Binding of CD3-targeted LVs to activated PBMC (anti-His staining); assay type: cell-based, human; details: 100 nM dasatinib, 7 h and 24 h after start of treatment
Method: To understand the mechanism behind the transduction enhancing characteristic of dasatinib, fully activated PBMC were incubated with CD3-targeted LVs, as described above, and analyzed via flow cytometry 7, 24 and 72 h after start of incubation with dasatinib and transduction. Cells were stained with anti-His-PE, allowing the detection of L. Vs bound to the cells.

activated PBMC [6] = experiment: Comparison of tyrosine kinase inhibitors on targeted LV transduction of activated PBMC; assay type: cell-based, human; details: 5 h; for effect of TKI on transduction by targeted LVs: 50 nM dasatinib, 1 μM imatinib or 30 μM genistein
human whole blood = assay type: cell-based; details: 100 nM dasatinib, five to six days
[7] = test system: splenocytes isolated from huNSG mice; assay type: cell-based, humanized NSG mice; details: CD3-LV(GFP), 50 or 100 nM dasatinib 5 h, three days post transduction
human CD3 receptor = assay type: cell-based; details: 50 or 100 nM dasat., three days post transduction
[8] = test system: CD45+ cells isolated from blood; experiment: In vivo transduction in PBMC-humanized NSG mice; details: 10 mg/kg dasatinib i.p. one hour prior to CD3-LV i.v., seven days, not statistically significant
Method: For humanization, 1×10^7 ex vivo activated PBMC were transplanted by intravenous (i.v.) tail-vein injection into 8 week old mice. Humanization levels were measured and used for grouping of the mice by flow cytometry from blood taken eleven days post PBMC injection. The following day, 10 mg/kg dasatinib diluted in vehicle (4% DMSO, 33.3% PEG-300, 5% Tween80, 57.7% ddH20) was intraperitoneally (i.p.) administered to the mice, one hour prior to CD3-LV i.v. injection. The animals were sacrificed seven days post vector administration. Blood, spleen and bone marrow were collected and single cell 35 suspensions were prepared and analyzed by flow cytometry. Additionally, genomic DNA was isolated from the single cell suspension and used for vector copy number (VCN) analysis using quantitative polymerase chain reaction (qPCR).

activated PBMC [9] = test system: activated PBMC
[10] = test system: freshly isolated PBMC exposed solely to IL-7/15; details: 100 nM dasatinib, day 4 and 7

Structure (SMILES): Cc1nc(Nc2ncc(C(=O)Nc3c(C)cccc3Cl)s2)cc(N2CCN(CCO)CC2)n1 [dasatinib, N-(2-Chloro-6-methylphenyl)-2-[[6-[4-(2-hydroxyethyl)-1-piperazinyl]-2-methyl-4-pyrimidinyl]amino]-5 thiazolecarboxamide]
- GFP-expression, TR66-LV in presence of dasatinib (activated PBMC [1]): 30%
- T-cells transduced by CD3-LVs in presence of dasatinib (activated PBMC [1]): up to 70%
- effect of pretreatment on cell-directed gene transfer using CD3-LVs (activated PBMC [1]): dramatically increases
- effect on CD4-LV transduction (activated PBMC [1]): slight increase
- effect on transduction by CD8-LV and VSV-LV (activated PBMC [1]): not affected
- increase in transduction (maximum in this setup) (activated PBMC [1]): 3 fold
- increase in transduction compared to untreated cells (activated PBMC [1]): 1.6 fold
- increase in transduction compared with Vectofusin-1 (activated PBMC [1]): even stronger than by the transduction enhancer Vectofusin-1
- less transduction after short incubation compared to longer incubation time (activated PBMC [1]): 10-35%
- stability of gene transfer (activated PBMC [1]): remained stable
- transduction enhancement at lowest concentration (activated PBMC [1]): not sufficient to enhance transduction
- transduction for TR66-LV, VF-1 added in presence of dasatinib (activated PBMC [1]): ~70%
- increase of titers of CD3-LV(CAR) in presence of dasatinib (activated PBMC [2]; CD19 CAR, three days post transduction): 3-16 fold
- titers of CD3-LV(GFP) in presence of dasatinib (activated PBMC [2]; with dasatinib): 1e7-1e8 T.U./mL
- TR66-LV mediated gene transfer, VF-1 added to dasatinib-treated cells ([3]; IL-7/15 only PBMC, 100 nM dasatinib plus VF-1): 10%
- improvement of CD3-LV transduction of cytokine-only stimulated T-cells ([3]; in presence of dasatinib (summary)): 7 fold
- CD25-expression upon activating antibodies or CD3-LVs in presence of dasatinib (CD25): did not cause an increase
- CAR transduction in presence of VF-1 with dasatinib (activated PBMC [4]): 13%
- CAR-expression, CD3-LV transduced cells, dasatinib present (activated PBMC [4]): up to 10%
- tumor killing (dead target cells) by CAR T cells generated in presence of dasatinib (CD19+Nalm-6 cells; 4 h): around 40%
- Nalm-6 cells killed by CD19-CAR T cells (CD19+Nalm-6 cells; 24 h): nearly all
- overall CAR expression compared to untreated cells (Nalm-6 cells; 50 nM dasatinib during transduction with CD3-LV(CAR)): increased
- target cell killing by CAR T cells generated in presence of dasatinib (Nalm-6 cells; 50 nM dasatinib, day 2 up to day 8, 1:1 ratio): complete target cell killing
- CAR T cell exhaustion and phenotype markers dependent on dasatinib treatment (Nalm-6 cells; day 8 of the killing assay): no difference
- amount of CD3-LVs bound to the cells (activated PBMC [5]): substantially increased
- increase of transgene expression, transduction with CD3-LV (activated PBMC [6]; 50 nM dasatinib or 1 μM bosutinib, GFP three days post transduction): ~4 fold
- effect of TKI on transduction by targeted LVs (activated PBMC [6]): strongest increase
- GFP-expression of CD3+ cells, CD3-LV in presence of dasatinib (human whole blood): above 2%
- GFP expression of CD45+ splenocytes in presence of dasatinib [7]: around 25%
- MFI of the CD3 receptor in presence of CD3-LV and dasatinib (human CD3 receptor): only slightly reduced
- GFP-expression and vector integration in genomic DNA of blood cells in vivo [8]: clear tendency
- viability in presence of dasatinib compared to untreated cells (activated PBMC [9]; activated PBMC, 100 nM dasatinib, day 3 and 7): not compromised
- viability of the cells at high dasatinib concentration (activated PBMC [9]; dasatinib concentrations above 50 nM, 3 days post transduction): dropped slightly
- cell viability of non-activated cells [10]: did not negatively affecT-cell viability

Structure (SMILES): O=c1c(-c2ccc(O)cc2)coc2cc(O)cc(O)c12 [genistein]
- effect of TKI on transduction by targeted LVs (activated PBMC [6]): slight increase

Structure (SMILES): Cc1ccc(NC(=O)c2ccc(CN3CCN(C)CC3)cc2)cc1Nc1nccc(-c2cccnc2)n1 [imatinib, 4-[(4-Methylpiperazin-1-yl)methyl]-N-{4-methyl-3-[(4-pyridin-3˜ ylpyrimidin-2-yl)amino]phenyl}benzamid]
- effect of TKI on transduction by targeted LVs (activated PBMC [6]): did not lead to an increase
